Source: paper PMC7144022, “Quinolinecarboxamides Inhibit the Replication of the Bovine Viral Diarrhea Virus by Targeting a Hot Spot for the Inhibition of Pestivirus Replication in the RNA-Dependent RNA Polymerase” (Molecules, 2020)

What was measured:
[1] = Cytotoxicity assay, proliferation of exponentially growing MDBK cells (MTS/PMS); assay type: cell-based, bovine; conditions: bovine
Protocol: Assays were carried out, as described previously.

BVDV NADL virus = experiment: CPE-based antiviral assay, BVDV NADL in MDBK cells (MTS/PMS); conditions: for EC50: Bovine viral diarrhea virus isolates and strains, MDBK, 72 h; for S.I.: selectivity index, CC50 vs EC50
[2] = sheet CSFCI#, potency relative to TO505-6180 (EC50 0.07 µM)
[3] = sheet CSFCII#, potency relative to TO502-2403 (EC50 0.2 µM)

SMILES | CC50 at 5 days [1] [µM] | EC50 (BVDV NADL virus) [µM] | S.I. (BVDV NADL virus) | fold increase (BVDV NADL virus; [2]) | fold increase (BVDV NADL virus; [3])
Cc1cccc2sc(NC(=O)c3cc(-c4ccccc4)nc4ccccc34)nc12 [CSFC-1, Cc1cccc2sc(nc12)NC(=O)c1cc(nc2ccccc21)c1ccccc1] | > 100 | 0.3 | 333 | 0.23 | 
Cc1ccc2nc(NC(=O)c3cc(-c4ccccc4)nc4ccccc34)sc2c1 [CSFC-2, Cc1ccc2nc(NC(=O)c3cc(nc4ccccc43)c3ccccc3)sc2c1] | > 100 | 5.7 | 18 | 0.0123 | 
O=C(Nc1nc2ccccc2[nH]1)c1cc(-c2ccccc2)nc2ccccc12 [CSFC-3, O=C(Nc1nc2ccccc2[NH]1)c1cc(nc2ccccc21)c1ccccc1] | > 100 | > 100 | 1 | 0.0007 | 
Cn1c(NC(=O)c2cc(-c3ccccc3)nc3ccccc23)nc2ccccc21 [CSFC-4, O=C(Nc1nc2ccccc2n1C)c1cc(nc2ccccc21)c1ccccc1] | > 100 | > 100 | 1 | 0.0007 | 
O=C(Nc1nc2cc(Cl)ccc2o1)c1cc(-c2ccccc2)nc2ccccc12 [CSFC-5, Clc1cc2nc(NC(=O)c3cc(nc4ccccc43)c3ccccc3)oc2cc1] | > 100 | > 100 | 1 | 0.0007 | 
O=C(Nc1ccccn1)c1cc(-c2ccccc2)nc2ccccc12 [CSFC-6, O=C(Nc1ccccn1)c1cc(nc2ccccc21)c1ccccc1] | > 100 | > 100 | 1 | 0.0007 | 
O=C(Nc1cccnc1)c1cc(-c2ccccc2)nc2ccccc12 [CSFC-7, O=C(Nc1cccnc1)c1cc(nc2ccccc21)c1ccccc1] | > 100 | > 100 | 1 | 0.0007 | 
O=C(Nc1ccncc1)c1cc(-c2ccccc2)nc2ccccc12 [CSFC-8, O=C(Nc1ccncc1)c1cc(nc2ccccc21)c1ccccc1] | > 100 | > 100 | 1 | 0.0007 | 
COc1ccc2nc(NC(=O)c3cc(-c4ccccc4)nc4ccccc34)sc2c1 [CSFC-9, COc1ccc2nc(NC(=O)c3cc(nc4ccccc43)c3ccccc3)sc2c1] | > 100 | 0.3 | 333 | 0.23 | 
O=C(Nc1nc2ccc(Cl)cc2s1)c1cc(-c2ccccc2)nc2ccccc12 [CSFC-10, Clc1ccc2nc(NC(=O)c3cc(nc4ccccc43)c3ccccc3)sc2c1] | > 100 | 0.5 | 200 | 0.14 | 
Cc1cc2nc(NC(=O)c3cc(-c4ccccc4)nc4ccccc34)sc2cc1C [CSFC-11, Cc1cc2nc(NC(=O)c3cc(nc4ccccc43)c3ccccc3)sc2cc1C] | > 100 | 0.3 | 333 | 0.23 | 
O=C(Nc1nc2ccc([N+](=O)[O-])cc2s1)c1cc(-c2ccccc2)nc2ccccc12 [CSFC-12, [O-][N+](=O)c1ccc2nc(NC(=O)c3cc(nc4ccccc43)c3ccccc3)sc2c1] | 46.8 | > 100 | 0.5 | 0.0007 | 
O=C(Nc1nc2ccccc2s1)c1cc(-c2ccccc2)nc2ccccc12 [CSFC-13, O=C(Nc1nc2ccccc2s1)c1cc(nc2ccccc21)c1ccccc1] | > 100 | 1.2 |  | 0.06 | 
O=C(Nc1nc2ccc(Br)cc2s1)c1cc(-c2ccccc2)nc2ccccc12 [CSFC-14, Brc1ccc2nc(NC(=O)c3cc(nc4ccccc43)c3ccccc3)sc2c1] | > 100 | 1.4 | 71 | 0.05 | 
O=C(Nc1nc2c(Cl)cccc2s1)c1cc(-c2ccccc2)nc2ccccc12 [CSFC-15, Clc1cccc2sc(nc21)NC(=O)c1cc(nc2ccccc21)c1ccccc1] | > 100 | 0.8 | 125 | 0.09 | 
O=C(Nc1nccs1)c1cc(-c2ccccc2)nc2ccccc12 [CSFC-16, O=C(c1cc(nc2ccccc12)c3ccccc3)Nc4nccs4] | > 100 | 30 | 3 |  | 0.00667

SMILES | CC50 at 5 days [1] [µM] | EC50 (BVDV NADL virus) [µM] | S.I. (BVDV NADL virus) | fold increase (BVDV NADL virus; [2]) | fold increase (BVDV NADL virus; [3])
Cc1ccc2nc(NC(=O)c3ccnc4ccccc34)sc2c1 [CSFC-17, Cc1ccc2nc(sc2c1)NC(=O)c4ccnc3ccccc34] | > 100 | 100 | 1 |  | 0.002
O=C(Nc1nc2ccc(F)cc2s1)c1cc(-c2ccccc2)nc2ccccc12 [CSFC-18, Fc1ccc2nc(NC(=O)c3cc(nc4ccccc43)c3ccccc3)sc2c1] | > 100 | 0.3 | 333 | 0.23 | 
COc1cccc2sc(NC(=O)c3cc(-c4ccccc4)nc4ccccc34)nc12 [CSFC-19, COc1cccc2sc(nc12)NC(=O)c1cc(nc2ccccc21)c1ccccc1] | > 100 | 0.4 | 250 | 0.18 | 
Cc1ccc2nc(N(C)C(=O)c3cc(-c4ccccc4)nc4ccccc34)sc2c1 [CSFC-21, O=C(c1cc(nc2ccccc21)c1ccccc1)N(C)c1nc2ccc(C)cc2s1] | > 100 | > 100 | 1 | 0.0007 | 
Cc1ccc2nc(NC(=O)c3ccncc3)sc2c1 [CSFC-22, Cc1ccc2nc(NC(=O)c3ccncc3)sc2c1] | > 100 | > 100 | 1 | 0.0007 | 
Cc1ccc2nc(NC(=O)c3cccnc3)sc2c1 [CSFC-23, Cc1ccc2nc(NC(=O)c3cccnc3)sc2c1] | > 100 | > 100 | 1 | 0.0007 | 
Cc1ccc2nc(NC(=O)c3cccc4ccccc34)sc2c1 [CSFC-24, Cc1ccc2nc(NC(=O)c3cccc4ccccc43)sc2c1] | > 100 | > 100 | 1 | 0.0007 | 
Cc1ccc2nc(NC(=O)c3ccccn3)sc2c1 [CSFC-25, Cc1ccc2nc(NC(=O)c3ccccn3)sc2c1] | > 100 | > 100 | 1 | 0.0007 | 
Cc1ccc2nc(NC(=O)c3cc4ccccc4n3C)sc2c1 [CSFC-26, Cn1c2ccccc2cc1C(=O)Nc1nc2ccc(C)cc2s1] | > 100 | > 100 | 1 | 0.0007 | 
Cc1ccc2nc(NC(=O)c3cc[n+]([O-])cc3)sc2c1 [CSFC-27, [O-][n+]1ccc(cc1)C(=O)Nc1nc2ccc(C)cc2s1] | > 100 | > 100 | 1 | 0.0007 | 
Cc1ccc2nc(NC(=O)c3cc4ccccc4[nH]3)sc2c1 [CSFC-28, Cc1ccc2nc(NC(=O)c3cc4ccccc4[NH]3)sc2c1] | > 100 | > 100 | 1 | 0.0007 | 
Cc1ccc2nc(NC(=O)c3ccccc3)sc2c1 [CSFC-29, Cc1ccc2nc(NC(=O)c3ccccc3)sc2c1] | > 100 | > 100 | 1 | 0.0007 | 
Cc1ccc2nc(NC(=O)c3ncc[nH]3)sc2c1 [CSFC-30, Cc1ccc2nc(NC(=O)c3ncc[NH]3)sc2c1] | > 100 | > 100 | 1 | 0.0007 | 
Cc1ccc2nc(NC(=O)c3cc(O)nc4ccccc34)sc2c1 [CSFC-31, Oc1nc2ccccc2c(c1)C(=O)Nc1nc2ccc(C)cc2s1] | > 100 | > 100 | 1 | 0.0007 | 
CC(C)(C)c1cc(NC(=O)c2cc(-c3ccccc3)nc3ccccc23)no1 [CSFC-32, O=C(Nc1cc(on1)C(C)(C)C)c3cc(nc2ccccc23)c4ccccc4] | > 100 | 7.2 | 14 |  | 0.0278
Cc1ccc2nc(NC(=O)c3nccn3C)sc2c1 [CSFC-33, Cn1ccnc1C(=O)Nc1nc2ccc(C)cc2s1] | > 100 | 46 | 2 | 0.00152 | 
